In US8465736B2, “Glutadon” (priority 2006, dated 2013):
Entries after “also recorded” stand apart in the source; their conditions may differ.

Key:
advanced carcinomas = test: Phase I/IIa clinical study (GlutaDON): stabilization/progression by RECIST criteria; type: in vivo, human; conditions: for Progression (share of patients) / Stabilization (share of patients): Total
Protocol: In a phase I/IIa clinical study (GlutaDON®), altogether 58 patients with advanced carcinomas were treated with the combination of the two active ingredients described herein. The patients received PEG-PGA in a dosage of 120 IU/m^2 twice a week by the intravenous route, the infusion lasting 15 minutes. The administration of PEG-PGA was followed after 2-4 hours by the intravenous application of DON in a concentration of 5-185 mg/m^2. The duration of the infusion was again 15 minutes. […] According to the internationally accepted RECIST criteria, the term “stabilization” means that the increase in the measurable tumor diameters was less than 20% six weeks or more after the screening, i.e. after the staging of the tumor before the first treatment. According to the internationally accepted RECIST criteria, the term “progression” means that a growth of more than 20%, or a subjective progression, or new lesions were observed within six weeks.

[1] = GlutaDON study: side effects (nausea and vomiting); type: in vivo, human; conditions: DON up to 185 mg/m^2 in combination with PEG-PGA 120 IU/m^2 twice a week
Protocol: In a phase I/IIa clinical study (GlutaDON®), altogether 58 patients with advanced carcinomas were treated with the combination of the two active ingredients described herein. The patients received PEG-PGA in a dosage of 120 IU/m^2 twice a week by the intravenous route, the infusion lasting 15 minutes. The administration of PEG-PGA was followed after 2-4 hours by the intravenous application of DON in a concentration of 5-185 mg/m^2. The duration of the infusion was again 15 minutes.

[2] = dosages of up to 600 mg/m^2 twice a week; cited from earlier work
[3] = Colon, high DON dosage 105-185 mg/m^2, with PEG-PGA 120 IU/m^2
[4] = Colon, low DON dosage 5-80 mg/m^2, with PEG-PGA 120 IU/m^2
[5] = Kidney, high DON dosage 105-185 mg/m^2 i.v., after PEG-PGA 120 IU/m^2 twice a week
[6] = Kidney, low DON dosage 5-80 mg/m^2 i.v., after PEG-PGA 120 IU/m^2 twice a week
[7] = Other indications, high DON dosage 105-185 mg/m^2, with PEG-PGA 120 IU/m^2
[8] = Other indications, low DON dosage 5-80 mg/m^2, with PEG-PGA 120 IU/m^2
[9] = Ovary, high DON dosage 105-185 mg/m^2, with PEG-PGA 120 IU/m^2
[10] = Ovary, low DON dosage 5-80 mg/m^2, with PEG-PGA 120 IU/m^2
[11] = Prostate, high DON dosage 105-185 mg/m^2, with PEG-PGA 120 IU/m^2
[12] = Prostate, low DON dosage 5-80 mg/m^2, with PEG-PGA 120 IU/m^2
[13] = Total (10 patients), high DON dosage 105-185 mg/m^2, with PEG-PGA 120 IU/m^2
[14] = Total (36 patients), low DON dosage 5-80 mg/m^2, with PEG-PGA 120 IU/m^2
[15] = high DON dosage 105-185 mg/m^2, with PEG-PGA 120 IU/m^2
[16] = low DON dosage 5-80 mg/m^2, with PEG-PGA 120 IU/m^2

[N-]=[N+]=CC(=O)CC[C@H](N)C(=O)O [DON, 6-diazo-5-oxo-L-norleucine]
Progression (number of patients) (advanced carcinomas; [3]): 1 patients | Stabilization (number of patients) (advanced carcinomas; [3]): 0 patients | Progression (number of patients) (advanced carcinomas; [4]): 4 patients | Stabilization (number of patients) (advanced carcinomas; [4]): 2 patients | Progression (number of patients) (advanced carcinomas; [5]): 0 patients | Stabilization (number of patients) (advanced carcinomas; [5]): 4 patients | Progression (number of patients) (advanced carcinomas; [6]): 4 patients | Stabilization (number of patients) (advanced carcinomas; [6]): 5 patients | Progression (number of patients) (advanced carcinomas; [7]): 1 patients | Stabilization (number of patients) (advanced carcinomas; [7]): 0 patients | Progression (number of patients) (advanced carcinomas; [8]): 10 patients | Stabilization (number of patients) (advanced carcinomas; [8]): 4 patients | Progression (number of patients) (advanced carcinomas; [9]): 0 patients | Stabilization (number of patients) (advanced carcinomas; [9]): 1 patients | Progression (number of patients) (advanced carcinomas; [10]): 4 patients | Stabilization (number of patients) (advanced carcinomas; [10]): 1 patients | Progression (number of patients) (advanced carcinomas; [11]): 1 patients | Stabilization (number of patients) (advanced carcinomas; [11]): 2 patients | Progression (number of patients) (advanced carcinomas; [12]): 1 patients | Stabilization (number of patients) (advanced carcinomas; [12]): 1 patients | Progression (number of patients) (advanced carcinomas; [13]): 3 patients | Stabilization (number of patients) (advanced carcinomas; [13]): 7 patients | Progression (number of patients) (advanced carcinomas; [14]): 23 patients | Stabilization (number of patients) (advanced carcinomas; [14]): 13 patients | Progression (share of patients) (advanced carcinomas; [15]): 30% | Stabilization (share of patients) (advanced carcinomas; [15]): 70% | Progression (share of patients) (advanced carcinomas; [16]): 64% | Stabilization (share of patients) (advanced carcinomas; [16]): 36% | Nausea and vomiting as dose-limiting side effects [1]: without nausea and vomiting being found to be dosage-limiting side effects; also recorded: not dose-limiting | Action of DON used by itself [2]: very modest action | Nausea and vomiting with DON used by itself [2]: dosage-limiting side effects
